The values that follow come from patent US7179943B2, “Bicyclic derivatives that modulate voltage-gated potassium channels and methods of use thereof” (Wyeth, priority 2004, dated 2007).

One data set relates to mouse Elevated Zero Maze. Nature of the data set: Anxiolytic activity: mouse Elevated Zero Maze model. The class given is in vivo. The note with it: 30 min prior to testing, mice; for % Total Distance Traveled (Relative to Control): 3 mg/kg ip. Here is the method: Anxiolytic activity of the compounds of formula I was determined using the mouse Elevated Zero Maze model, originally described by Shepherd, et al. (Psychopharmocol. (1994) 116:56–64), incorporated herein by reference in its entirety. Anxiolytic efficacy was measured as the ability of the test compound to increase the amount of time that the mice spent in the open zones of the maze. To account for the possibility of false positive results due to increased locomotor activity, total distance traveled during the course of the experiment was also monitored.
The zero maze, constructed of black Perspex, consisted of a circle (outer diameter approximately 60 cm, width 5 cm) that was elevated 55 cm above the floor. The zero maze was divided into 4 equal quadrants, alternating between open and closed. […] Animals were tested under low levels of illumination in the presence of red light. Test animals (male CN57BI/n mice) were group housed with ad lib access to food and water. On the day of testing, animals were brought into the behavioral testing room and allowed to habituate for a period of not less than one-half hour. Test compounds were administered at the appropriate dose ip. 30 min prior to testing on the zero maze. Control animals were administered the test vehicle. Animals were placed on the zero maze with their head and forepaws contained within a closed quadrant. The animals' behavior was then recorded for 4 minutes and the distance traveled, the amount of time spent in, and number of entries into, each quadrant was noted. Behavior was monitored utilizing an automated video tracking system. Results for the test compounds are presented here as the percentage relative to that obtained with the control animals.

In data set [1] the target is T1, human Kv1.1/Kvβ1 potassium ion channel complex (Homo sapiens, UniProt Q09470).
T1 construct: expressed in transfected cells; host or cells: Xenopus oocytes injected with cRNA
Nature of the data set: Xenopus oocytes current assay (inhibition of inactivation, voltage clamp). The format is cell-based. The note with it: Xenopus oocytes expressing hKv1.1/hKvβ1, relative to control bath solution, read-out: Percent Increase in Steady State Current Of human Kv1.1/Kvβ1 @ a concentration of 50 μM. As for the experimental part:
The compounds of formula I were examined for their ability to inhibit the inactivation of the human Kv1.1/Kvβ1 potassium ion channel complex in vitro using electrophysiological current recordings on inactivating Kv1.1/Kvβ1 channels expressed in Xenopus oocytes. Xenopus oocytes were harvested from frogs under general anesthesia using aseptic techniques. Oocytes were treated with 2 mg/ml collagenase for 1–1.5 hr, defolliculated, and injected with 40 nL cRNA (a mixture of hky1.1 and hKvβ1) produced using standard molecular biological techniques (Sambrook, et al., 1989, Molecular Cloning: A Laboratory Manual). The concentration of hKv1.1/hKvp1 cRNA varies, but was generally about 50 ng/μL hKv1.1 and […] hKβ1.
Currents were recorded using standard voltage clamp amplifiers at room temperature. Recordings were performed in the bath solution “ND-96” containing 96 mM NaCl, 2 mM KCl, 1 mm CaCl2, 1 mM MgCl2, 10 mM HEPES and […] Gentamycin (pH=7.6). The pipette (electrode) solution generally consisted of […]. Electrodes were made from WPI TW150F-4 borosilicate glass (or equivalent) and typically had resistances of 0.5–1.5 Mohms. The standard current-voltage (IV) pulse protocol consisted of voltage steps from −60 mV to +50 mV, in 10 mV increments for 200 ms, at a frequency of one IV set per 2 minutes. Data were digitized and analyzed by standard software packages.
Solutions of the test compounds consisting of test compounds dissolved in bath solution were applied by bath perfusion using gravity or pump-driven flow. A minimum of 2 mL (10 times the bath volume) over 3 minutes were flowed for each compound concentration tested. Data were averaged across at least 3 cells tested for each concentration.
Test compounds were examined for their ability to inhibit the inactivation of the steady state portion of the IV curve.

T1 sequence (Q09470 whole entry, one chain of several): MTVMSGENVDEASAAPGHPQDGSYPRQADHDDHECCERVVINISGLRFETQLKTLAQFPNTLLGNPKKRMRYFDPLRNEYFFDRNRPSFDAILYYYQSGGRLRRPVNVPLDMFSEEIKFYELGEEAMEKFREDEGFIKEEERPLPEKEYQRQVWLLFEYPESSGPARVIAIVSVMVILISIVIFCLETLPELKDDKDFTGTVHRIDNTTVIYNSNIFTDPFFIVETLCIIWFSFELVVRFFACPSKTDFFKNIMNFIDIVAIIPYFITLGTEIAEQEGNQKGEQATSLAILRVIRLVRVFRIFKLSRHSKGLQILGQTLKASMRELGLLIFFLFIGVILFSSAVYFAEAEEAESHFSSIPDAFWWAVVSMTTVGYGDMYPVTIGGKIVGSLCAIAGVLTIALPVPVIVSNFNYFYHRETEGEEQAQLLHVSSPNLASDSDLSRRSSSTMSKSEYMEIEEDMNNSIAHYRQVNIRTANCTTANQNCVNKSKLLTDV

Turning to `CN1C(=O)CN=C(c2ccccc2)c2cc(Cl)ccc21` [Diazepam, reference compound], the “% Total Distance Traveled (Relative to Control)” value with mouse Elevated Zero Maze is 75%; in the data set with mouse Elevated Zero Maze (listed as diazepam), “small decrease”.
What is called melting point is the temperature of the solid-liquid transition. Consider `CC1(C)C2CC[C@]1(C)C(=O)C(C(=O)Nc1cccc(C(F)(F)F)c1)C2=O` (stereo partly drawn) [Example 2, (1S)-N-[3-(trifluoromethyl)phenyl]-1,8,8-trimethyl-2,4-dioxobicyclo[3.2.1] octane-3-carboxamide], for which the melting point was 60 to 62 °C. The activation at 50 µM in data set [1] turned out to be 22%. Besides, the “% Time Spent in Open Zones (Relative to Control)” value in the data set with mouse Elevated Zero Maze (60 mg/kg ip.) is listed as 140%.
As for `CC1(C)C2CC[C@]1(C)C(=O)C(C(=O)Nc1ccc(C(F)(F)F)cc1)C2=O` (stereo partly drawn) [Example 8, (1S)-N-[4-(trifluoromethyl)phenyl]-1,8,8-trimethyl-2,4-dioxobicyclo[3.2.1] octane-3-carboxamide], the melting point lay within 81 to 83 °C. Moreover, the activation at 50 µM in data set [1] stood at 53%.
For `CN(C)c1ccc(NC(=O)C2C(=O)C3CC[C@](C)(C2=O)C3(C)C)cc1` (stereo partly drawn) [Example 9, (1S)-N-[4-(dimethylamino)phenyl]-1,8,8-trimethyl-2,4-dioxobicyclo[3.2.1] octane-3-carboxamide] the same measures were 93 to 95 °C and 27%.
Turning to `CC1(C)C2CC[C@]1(C)C(=O)C(C(=O)Nc1ccc(F)c(Cl)c1)C2=O` (stereo partly drawn) [Example 10, (1S)-N-[3-chloro-4-fluorophenyl]-1,8,8-trimethyl-2,4-dioxobicyclo[3.2.1] octane-3-carboxamide], the melting point lay within 87 to 89 °C. Further, the activation at 50 µM in data set [1] came out at 137%.
In turn, `CC1(C)C2CC[C@@]1(C)C(=O)C(C(=O)Nc1cc(C(F)(F)F)cc(C(F)(F)F)c1)C2=O` (stereo partly drawn) [Example 12, (1R)-N-[3,5-bis(trifluoromethyl)phenyl]-1,8,8-trimethyl-2,4-dioxobicyclo [3.2.1]octane-3-carboxamide] had a melting point of 68 to 71 °C. Also, the activation at 50 µM in data set [1] was 22%.
`CC1(C)C2CC[C@@]1(C)C(=O)C(C(=O)Nc1cc(Cl)cc(Cl)c1)C2=O` (stereo partly drawn) [Example 13, (1R)-N-(3,5-dichlorophenyl)-1,8,8-trimethyl-2,4-dioxobicyclo[3.2.1]octane-3-carboxamide] showed a melting point of 115 to 117 °C. Further, in data set [1], the activation at 50 µM worked out at 19%.
Take `CC1(C)C2CC[C@@]1(C)C(=O)C(C(=O)Nc1ccc([N+](=O)[O-])cc1)C2=O` (stereo partly drawn) [Example 15, (1R)-N-(4-nitrophenyl)-1,8,8-trimethyl-2,4-dioxobicyclo[3.2.1]octane-3-carboxamide]: the melting point lay in the range of 168 to 170 °C. Moreover, the activation at 50 µM in data set [1] worked out at 75%.
For `CC1(C)C2CC[C@@]1(C)C(=O)C(C(=O)Nc1ccc(Cl)c(C(F)(F)F)c1)C2=O` (stereo partly drawn) [Example 16, (1R)-N-[4-chloro-3-(trifluoromethyl)phenyl]-1,8,8-trimethyl-2,4-dioxobicyclo [3.2.1]octane-3-carboxamide] the same measures were 117 to 119 °C and 45%.
Taken in the same sequence, the figures for `CC1(C)C2CC[C@@]1(C)C(=O)C(C(=O)Nc1ccc(C(F)(F)F)cc1)C2=O` (stereo partly drawn) [Example 18, (1R)-N-[4-(trifluoromethyl)phenyl]-1,8,8-trimethyl-2,4-dioxobicyclo[3.2.1] octane-3-carboxamide] were 78 to 81 °C and 96%.
Taken in the same sequence, the figures for `CC1(C)C2CC[C@@]1(C)C(=O)C(C(=O)Nc1ccc(Cl)cc1)C2=O` (stereo partly drawn) [Example 19, (1R)-N-[4-chlorophenyl]-1,8,8-trimethyl-2,4-dioxobicyclo[3.2.1]octane-3-carboxamide] were 88 to 90 °C and 14%.
As to `CC1(C)C2CC[C@@]1(C)C(=O)C(C(=O)Nc1ccc(F)c(Cl)c1)C2=O` (stereo partly drawn) [Example 20, (1R)-N-[3-chloro-4-fluorophenyl]-1,8,8-trimethyl-2,4-dioxobicyclo[3.2.1] octane-3-carboxamide], the melting point lay within 89 to 91 °C. Also, the activation at 50 µM in data set [1] worked out at 267%.
Take `CC1(C)C2CC[C@@]1(C)C(=O)C(C(=O)Nc1ccc(F)c(C(F)(F)F)c1)C2=O` (stereo partly drawn) [Example 21, (1R)-N-[3(trifluoromethyl)-4-fluorophenyl]-1,8,8-trimethyl-2,4-dioxobicyclo [3.2.1]octane-3-carboxamide]: the melting point lay within 96 to 98 °C. For the same compound, in data set [1], the activation at 50 µM was found to be 229%.
Turning to `O=C(Nc1cccc(C(F)(F)F)c1)C1C(=O)C2CCC(C2)C1=O` (centres unmarked) [Example 22, N-[3-(trifluoromethyl)phenyl]-2,4-dioxobicyclo[3.2.1]octane-3-carboxamide], the melting point was 68 to 69 °C. In data set [1], the activation at 50 µM turned out to be 41%.
The compound `O=C(Nc1cc(C(F)(F)F)cc(C(F)(F)F)c1)C1C(=O)C2CCC(C2)C1=O` (centres unmarked) [Example 23, N-[3,5-bis(trifluoromethyl)phenyl]-2,4-dioxobicyclo[3.2.1]octane-3-carboxamide] returned a melting point of 88 to 90 °C. Further, the activation at 50 µM in data set [1] came out at 137%.
Taken in the same sequence, the figures for `O=C(Nc1ccc(Cl)c(C(F)(F)F)c1)C1C(=O)C2CCC(C2)C1=O` (centres unmarked) [Example 25, N-[4-chloro-3-(trifluoromethyl)phenyl]-2,4-dioxobicyclo[3.2.1]octane-3-carboxamide] were 136 to 137 °C and 47%.
`O=C(Nc1ccc(F)c(C(F)(F)F)c1)C1C(=O)C2CCC(C2)C1=O` (centres unmarked) [Example 27, N-[4-fluoro-3-(trifluoromethyl)phenyl]-2,4-dioxobicyclo[3.2.1]octane-3-carboxamide] yielded a melting point of 97 to 100 °C. Also, in data set [1], the activation at 50 µM came to 43%.
